The values that follow come from patent publication US12611438B2, “Antiviral composition comprising a nucleolin-binding peptide” (ANYGEN CO., LTD., priority 2021, dated 2026).

Broadly, the Cmax is the highest concentration seen after dosing. One may read the Tmax as the time from dosing to the highest level. One may read the half-life as the time in which the quantity being followed falls by half. The AUC is concentration integrated over time. What is called IC50 is the concentration needed to halve the response being measured.

Data set [1] in a line: in vivo. To be noted: C57BL/6, mouse, serum, 2 mg/kg.
Experimental: (§1) In order to determine whether or not the stability of the peptide is enhanced, the in vivo half-life of the peptide was analyzed. […] The absorbance was measured at a wavelength of 450 nm using a VersaMax ELISA plate reader (Molecular Devices) and pharmacokinetics were analyzed with the phoenix WinNonlin 8.1 (Pharsight Corporation, Mountain View, CA, USA) program.
For data set [2] the following is noted: 2 mg/kg, tail vein, C57BL/6 mice.
Experimental: as §1
Data set [3] relates to SARS-COV-2. As to the kind of experiment: microbe, parasite or virus in culture. To be noted: Severe acute respiratory syndrome coronavirus 2, Vero C1008, 24 h.
Data set [4] can be described thus: in vitro. To be noted: African green monkey.
Data set [5] concerns MDA-MB-231. As to the kind of experiment: OBOC bead whole-cell binding assay. To be noted: peptide on OBOC beads, cells at 10^6 cells/ml.
Experimental: (§2) Before screening, beads were extensively washed with double distilled water and phosphate buffered saline (PBS; Welgene Inc., Republic of Korea). Cancer cells and normal cells were separated from the culture dish using trypsin/EDTA (Gibco) and washed with the corresponding culture medium. The cells were resuspended at 10^6 cells/ml and cultured while shaking (60 rpm) in a 37° C. humidified CO2 incubator with OBOC beads in a Petri dish. Beads bound by cells observed with the microscope had the shape of rosettes having central beads covered with one or more cell layers. Under an inverted microscope, positive beads were picked out with a pipette, and treated with guanidine-HCL (8M, 20 minutes) to remove cells and proteins from the bead surface, and secondary screening was performed with normal breast epithelial cells to detect false positive binding. Peptide sequencing was performed by selecting only beads having cell binding in both rounds.
(§3) Libraries of peptides listed in beads (50,000 to 100,000 beads were used at one time) was mixed with a human breast cancer cell line (MDA-MB-231). […] Then, these three peptides were labeled with fluorescein isothiocyanate (FITC) and the ability thereof to bind to MDA-MB-231 cells was determined.
Data set [6] concerns MCF-10A, CCD-18Co. As to the kind of experiment: Bead whole-cell binding assay, normal cell lines. To be noted: cell growth bead analysis.
Experimental: as §2, §3

Turning to `CSCC[C@H](NC(=O)[C@H](C)NC(=O)CNC(=O)[C@H](Cc1c[nH]cn1)NC(=O)[C@@H](N)CCCNC(=N)N)C(=O)N[C@H](C(=O)N[C@@H](Cc1ccc(O)cc1)C(=O)N[C@@H](CC(C)C)C(=O)N[C@@H](CCCCN)C(=O)NCCOCCOCCOCCOCCOCCOCCC(=O)NCCCC[C@H](NC(=O)CCOCCOCCOCCOCCOCCOCCNC(=O)[C@H](CCCCN)NC(=O)[C@H](CC(C)C)NC(=O)[C@H](Cc1ccc(O)cc1)NC(=O)[C@@H](NC(=O)[C@H](CCSC)NC(=O)[C@H](C)NC(=O)CNC(=O)[C@H](Cc1c[nH]cn1)NC(=O)[C@@H](N)CCCNC(=N)N)C(C)C)C(=O)NCCCC[C@H](NC(=O)[C@H](CCCCNC(=O)CCOCCOCCOCCOCCOCCOCCNC(=O)[C@H](CCCCN)NC(=O)[C@H](CC(C)C)NC(=O)[C@H](Cc1ccc(O)cc1)NC(=O)[C@@H](NC(=O)[C@H](CCSC)NC(=O)[C@H](C)NC(=O)CNC(=O)[C@H](Cc1c[nH]cn1)NC(=O)[C@@H](N)CCCNC(=N)N)C(C)C)NC(=O)CCOCCOCCOCCOCCOCCOCCNC(=O)[C@H](CCCCN)NC(=O)[C@H](CC(C)C)NC(=O)[C@H](Cc1ccc(O)cc1)NC(=O)[C@@H](NC(=O)[C@H](CCSC)NC(=O)[C@H](C)NC(=O)CNC(=O)[C@H](Cc1c[nH]cn1)NC(=O)[C@@H](N)CCCNC(=N)N)C(C)C)C(=O)N[C@@H](CS)C(=O)O)C(C)C` [AGM-330t], in data set [1] (intravenous), the Cmax came to 1880 ± 670 ng/mL, the time to peak (Tmax) was 0.167 h and the half-life was 9.43 ± 1.21 h. Further, the AUC in data set [1] (iv) amounted to 21400 ± 810 ng·h/mL. Further, in data set [2], the “in vivo stability compared with monomeric or dimeric peptides” value is “higher stability”.

Take `CCN(CC)CCCC(C)Nc1ccnc2cc(Cl)ccc12` (stereo not drawn) [Chloroquine, chloroquine]: it took 8.25 µM to reach half-maximal inhibition in data set [3] (IC50).

In the case of `Cc1cccc(C)c1OCC(=O)N[C@@H](Cc1ccccc1)[C@@H](O)C[C@H](Cc1ccccc1)NC(=O)[C@H](C(C)C)N1CCCNC1=O` [Lopinavir, lopinavir], in data set [4], the CC50 at 24 h was > 50 µM. The midpoint of inhibition in data set [3], the IC50, lay at 15.5 µM.

As to `CCC(CC)COC(=O)[C@H](C)N[P@](=O)(OC[C@H]1O[C@@](C#N)(c2ccc3c(N)ncnn23)[C@H](O)[C@@H]1O)Oc1ccccc1` [Remdesivir, remdesivir], the CC50 in data set [4] was > 50 µM. In data set [3], this compound returned an IC50 of 10.9 µM.

Regarding AVARARRRR (Synthetic construct AGM-332), the “binding to breast cancer cell line MDA-MB-231” value in data set [5] is “strong, specific, and preferential binding”. Besides, in data set [6], the “binding to normal cell lines MCF-10A and CCD-18Co” value is “relatively non-specific and bound”.
